Source: patent publication US20250241976A1, “ADMINISTRATION OF AN ANTICANCER PEPTIDE” (Verrica Pharmaceuticals, Inc., priority 2024, published 2025)
Where a SMILES comes first, the peptide text is derived from it. [ ]: non-standard residue; d: D form. Dip = N[C@H](C(=O)O)C(c1ccccc1)c1ccccc1

What was measured:
[1] = Storage of reconstituted Peptide A solution; type: physicochemical
Method: (§1) Peptide A was provided as the acetate salt, 20 mg of lyophilized powder per vial for injection. The powder was reconstituted in saline to a concentration ranging from 4-20 mg/mL based upon the target dose and volume for each subject. Peptide A was supplied in colorless glass vials (Ph. Eur. hydrolytic class I) fitted with rubber stopper (Ph. Eur. type I).
Peptide A vials (20 mg/vial) were stored at 2-8° C. (36-46° F.) or −20±5° C. (−13 to 5° F.) protected from light at the study site, separated from other drugs. The reconstituted Peptide A solution can be stored for up to 12 hours in a refrigerator at 2-8° C. (36-46° F.). Syringes with Peptide A drawn from the vial can be stored for up to 4 hours at 20-25° C. (68-77° F.) protected from light. Any unused portion was discarded.

[2] = test system: basal cell carcinoma (BCC) lesion; experiment: Clinical study: intradermal injection of Peptide A into basal cell carcinoma lesions, with TRAEs, withdrawals and necrosis recorded; type: in vivo, human
Method: This study involved human adults ≥18 years of age with clinically suspected BCC with at least 1 (and up to 5) eligible lesion(s) suitable for biopsy and excision. The size of the lesion(s) were ≥0.5 cm and ≤2 cm in longest diameter prior to punch biopsy or ≥1 cm and ≤2 cm in longest diameter prior to shave biopsy. Histological diagnosis of nodular, micronodular, or superficial BCC, as confirmed by punch or shave biopsy, was performed within 90 days of treatment.
as §1
Peptide A (acetate salt) was administered via intradermal injection into a single target lesion (between ≥0.5 cm and ≤2 cm in longest diameter) using the 1-mL syringe and 30-gauge 0.5-inch needle. The subjects were positioned in a way so that the target lesion lies flat, to avoid any dependent areas that may be susceptible to leakage of the pharmaceutical composition. Subsequent injections for the same lesion were given in remaining nonnecrotic areas of the lesion, as assessed prior to treatment. […]
Cohort 2 was assigned a regimen of 8 mg of Peptide A for each treatment day (with no partitioned administration on any day).
[…] The total 500 μL (8 mg) dosage volume is divided into 2 injections given at least 15 minutes and no more than 30 minutes apart, with 30% (150 μL) administered in the first injection and the remaining 70% (350 μL) with the second injection.
A radial administration method was also used for Cohorts 4 and 5. The formulation with Peptide A is injected intradermally for all injections and subcutaneous injection should be avoided. It is important to ensure adequate and even distribution of Peptide A across the entire base of the lesion. To accomplish adequate and even distribution of Peptide A across the entire lesion: The first 150 μL is injected as centrally as possible such that Peptide A can distribute radially outward; and the second (350 μL) portion is injected in a clockface fashion (i.e., at 12, 3, 6, 9 o'clock as shown in FIG. 1) as needed to ensure uniform distribution into the periphery of the lesion. The needle is inserted at a 10- to 20-degree angle for a flat lesion, or at an increased angle (i.e., greater than 20-degree) for a raised lesion.

Compound: NCCCC[C@H](NC(=O)[C@@H](NC(=O)[C@H](Cc1c[nH]c2ccccc12)NC(=O)[C@H](CCCCN)NC(=O)[C@H](CCCCN)NC(=O)[C@H](Cc1c[nH]c2ccccc12)NC(=O)[C@H](Cc1c[nH]c2ccccc12)NC(=O)[C@H](CCCCN)NC(=O)[C@@H](N)CCCCN)C(c1ccccc1)c1ccccc1)C(N)=O [Peptide A, KKWWKKWDipK-NH2] (H-KKWWKKW[Dip]K-NH2)
- Storage time of syringes with Peptide A drawn from the vial ([1]; 20-25° C., protected from light): up to 4 hours
- Storage time of reconstituted Peptide A solution ([1]; reconstituted in saline, refrigerator at 2-8° C.): up to 12 hours
- Subjects experiencing TRAEs of burning and pain at the injection site ([2]; Cohorts 1 and 2, 4 mg then 8 mg or 8 mg daily, no partitioned administration): Several subjects
- Subjects withdrawn from treatment due to TRAEs ([2]; Cohorts 1 and 2, no partitioned administration): Two subjects withdrew
- Change in TRAEs ([2]; Cohorts 4 and 5, partitioned (30%/70%, 15-30 min apart) and radial administration, 8 mg in 500 μL): marked decrease
- Withdrawal from study treatment due to TRAEs of burning or pain at the injection site ([2]; Cohorts 4 and 5 and expansion cohorts (10, 10, 26, 27 subjects enrolled), partitioned and radial administration, 8 mg): No subjects have withdrawn from study
- Treatment status after TRAE ([2]; Subject 3, Cohort 1, W1D2, no partitioned administration, subject withdrawn from treatment): Discontinued
- Lesion necrosis status ([2]; Subject 5, Cohort 1, W1D3 after 4 mg W1D1 and 8 mg W1D2, no partitioned administration, no injection given): Complete
- TRAEs (pain severity) ([2]; Subject 8, Cohort 2, 8 mg on W1D1, no partitioned administration): experiencing moderate
- Duration of pain post-treatment ([2]; Subject 8, Cohort 2, 8 mg, no partitioned administration): about 3-4 hours post-
- Treatment status after TRAE ([2]; Subject 8, Cohort 2, W1D2, no partitioned administration, subject withdrew from treatment): Discontinued
- TRAEs reported ([2]; Subject 9, Cohort 2, after the W1D2 treatment (8 mg), no partitioned administration, subject continued treatment): injection-site burning
